Earlier results on one compound are cited in paper PMC10135567, “New Indole-3-Propionic Acid and 5-Methoxy-Indole Carboxylic Acid Derived Hydrazone Hybrids as Multifunctional Neuroprotectors” (Antioxidants, 2023).

Molecules are shown by their SMILES.

The subject of the series is SH-SY5Y cells and isolated rat-brain synaptosomes. Details: method as in PMID 35624746. Particulars: SH-SY5Y cells and rat-brain synaptosomes under toxic agents of oxidative stress; cited from earlier work.

With `O=C(CCn1c(=S)n(CCC(=O)N/N=C/c2cccc(O)c2O)c2ccccc21)N/N=C/c1cccc(O)c1O` [VIII], the “cellular and synaptosomal viability restored” value is recorded as “up to 80%”.
